In patent US8329689B2 (priority 2006, dated 2012):
Structures can show the parent of a compound that is named as a salt. Where two headings read alike, the source gives them in different places.

How the values were obtained:
virus influenza A = test: microbe, parasite or virus in culture; type: cell-based; design: dose or concentration left out as unconfirmed; conditions: for inhibition: Influenza A virus, MDCK, dilution of virus 10^-3, read-out: % of inhibition of influenza A virus reproduction
in vitro = conditions: human
[1] = system: virus of hepatitis C strain JFH-1 (genotype 2a); test: microbe, parasite or virus in culture; type: cell-based; conditions: for Therapeutic index SI50 = TC50/IC50: HCV; for IC50: Hepatitis C virus, Huh-7.5.1, Huh7.5.1 cells, HCV JFH-1, 72 hours incubation, read-out: IC50 (IC50^HCV, antiviral activity)
[2] = system: some other cellular lines; conditions: cited from earlier work
influenza virus = conditions: cited from earlier work

| Compound | inhibition (virus influenza A) [%] | other results |
| --- | --- | --- |
| Br.Br.CCOC(=O)c1c(CN2CCN(C)CC2)n(-c2ccccc2)c2ccc3c(c12)CN(C)CO3 [1.2(2)] | – | % of inhibition of influenza A virus reproduction (virus influenza A; dilution of virus 10^-3): <50% |
| CCOC(=O)c1c(CSc2ccccc2)n(C)c2cc(Br)c3c(c12)CN(Cc1ccccc1)CO3 [1.2(35)] | 98 | – |
| CCOC(=O)c1c(CN(C)C)n(C)c2cc(-c3cccnc3)c(O)c(CN3CCCC3)c12.Cl.Cl.Cl [1.1.5(2c), ethyl 2-((dimethylamino)methyl)-5-hydroxy-1-methyl-6-(pyridin-3-yl)-4-(pyrrolidin-1-ylmethyl)-1H-indole-3-carboxylate hydrochloride] | – | CC50 (in vitro): 75 µM; Therapeutic index SI50 = TC50/IC50 [1]: 11; IC50 [1]: 7 µM |
| CCOC(=O)c1c(CN2CCCC2)n(C2CCCCC2)c2cc(Br)c3c(c12)CN(C)CO3 [1.2(10)] | 81 | – |
| CCCCN1COc2c(Br)cc3c(c2C1)c(C(=O)OCC)c(CSc1ccccc1)n3C [1.2(33)] | 95 | – |
| CCOC(=O)c1c(CS(=O)(=O)c2ccccc2)n(C)c2cc(Br)c3c(c12)CN(C)CO3 [1.2(42)] | 88 | – |
| CCOC(=O)c1c(C[S+]([O-])c2ccccc2)n(C)c2cc(-c3cccnc3)c(O)c(CN(C)C)c12.Cl.Cl (centres unmarked) [1.1.2(42)] | – | CC50 (in vitro): > 100 µM; Therapeutic index SI50 = TC50/IC50 [1]: >5; IC50 [1]: 18 µM |
| CCOC(=O)c1c(CSc2ccccc2)n(C)c2cc(-c3cc4ccccc4o3)c(O)c(CN(C)C)c12 [1.1.1(3)] | 52 | – |
| COC(=O)c1c(CSc2ccccc2)n(C)c2cc(Br)c3c(c12)CN(C)CO3 [1.2(46)] | 100 | – |
| CCOC(=O)c1c(CSc2ccccc2)n(C2CCCCC2)c2cc(Br)c3c(c12)CN(C)CO3 [1.2(41)] | 89 | – |
| CCOC(=O)c1c(CSc2ccccc2)n(C)c2cc(-c3ccncc3)c3c(c12)CN(C)CO3 [1.2.2(5)] | 100 | – |
| CCOC(=O)c1c(CN(C)C)n(C)c2cc(C#N)c3c(c12)CN(C)CO3 [1.2(29)] | – | CC50 (in vitro): > 100 µM; IC50 [1]: > 100 µM |
| CCOC(=O)c1c(CN2CCN(C)CC2)n(Cc2ccccc2)c2cc(Br)c3c(c12)CN(C)CO3 [1.2(6)] | 92 | – |
| CCOC(=O)c1c(CN(C)CCO)n(C)c2cc(Br)c3c(c12)CN(C)CO3 [1.2(16)] | 90 | – |
| CCOC(=O)c1c(COc2ccccc2)n(C)c2cc(-c3cccnc3)c(O)c(CN(C)C)c12 [1.2.1(29)] | 88 | – |
| CCOC(=O)c1c(CSc2ccccc2)n(C)c2cc(-c3cc4ccccc4[nH]3)c(O)c(CN(C)C)c12 [1.1.1(4)] | 66 | – |
| CCOC(=O)c1c(CSc2ccccc2)n(C)c2cc(-c3cccnc3)c(O)c(CN(C)C)c12 [1.2.1(5)] | 100 | – |
| CCOC(=O)c1c(CN2CCCCC2)n(Cc2ccccc2)c2cc(Br)c3c(c12)CN(C)CO3 [1.2(7)] | 100 | – |
| CCOC(=O)c1c(CN(C)C)n(C)c2cc(-c3ccccc3)c(O)c(Cn3ccnc3)c12.Cl.Cl [1.1.3(7)] | – | CC50 (in vitro): > 100 µM; Therapeutic index SI50 = TC50/IC50 [1]: >1.4; IC50 [1]: 72 µM |
| CCOC(=O)c1c(CSc2ccccc2)n(C)c2cc(C#N)c3c(c12)CN(C)CO3 [1.2(27)] | < 50 | – |
| CCOC(=O)c1c(CSc2ccccc2)n(C)c2cc(-c3cncnc3)c3c(c12)CN(C)CO3 [1.2.2(7)] | 88 | – |
| CCOC(=O)c1c(CSc2ccccc2)n(C)c2cc(Br)c3c(c12)CN(C)C(c1ccccc1)O3 (centres unmarked) [1.2(39)] | 62 | – |

| Compound | inhibition (virus influenza A) [%] | other results |
| --- | --- | --- |
| CCOC(=O)c1c(CSc2ccccc2)n(C)c2cc(-c3cn[nH]c3)c(O)c(CN(C)C)c12 [1.1.1(2)] | 63 | – |
| CCOC(=O)c1c(CNc2ccccc2)n(C)c2cc(-c3ccccc3)c3c(c12)CN(C)CO3 [1.2.3(7)] | 90 | – |
| CCOC(=O)c1c(CSc2ccccc2)n(C)c2cc(-c3cncc4ccccc34)c(O)c(CN(C)C)c12 [1.1.1(9)] | 88 | – |
| CCOC(=O)c1c(CSc2ccccc2)n(C)c2cc(-c3cccc(N(C)C)c3)c(O)c(CN(C)C)c12 [1.2.1(3)] | 77 | – |
| CCOC(=O)c1c(CSc2ccccc2)n(C)c2cc(-c3ccc(OC)nc3)c(O)c(CN(C)C)c12 [1.2.1(8)] | 81 | – |
| CCOC(=O)c1c(CNc2ccc(C)cc2)n(C)c2cc(Br)c3c(c12)CN(C)CO3 [1.2(26)] | 100 | – |
| CCOC(=O)c1c(CSc2ccc(Cl)cc2)n(C)c2cc(Br)c3c(c12)CN(C)CO3 [1.2(49)] | 90 | – |
| CCOC(=O)c1c(CO)n(C)c2cc(-c3cccnc3)c(O)c(CN(C)C)c12.Cl.Cl [1.1.2(35)] | – | CC50 (in vitro): > 100 µM; Therapeutic index SI50 = TC50/IC50 [1]: >16; IC50 [1]: 6 µM |
| CCOC(=O)c1c(CN2CCCC2)n(C)c2cc(-c3cccnc3)c(O)c(CN(C)C)c12 [1.1.5(5c), ethyl 4-((dimethylamino)methyl)-5-hydroxy-1-methyl-6-(pyridin-3-yl)-2-(pyrrolidin-1-ylmethyl)-1H-indole-3-carboxylate hydrochloride] | – | CC50 (in vitro): > 100 µM; Therapeutic index SI50 = TC50/IC50 [1]: >20; IC50 [1]: < 5 µM |
| CCOC(=O)c1c(CSc2ccccc2)n(C)c2cc(-c3cccc(O)c3)c(O)c(CN(C)C)c12 [1.2.1(2)] | 51 | – |
| CCOC(=O)c1c(CSc2ccccc2)n(C)c2cc(-c3ccccc3)c(O)c(CN(C)C)c12 [1.2.1(1)] | 96 | – |
| CCOC(=O)c1c(CSc2cccs2)n(C)c2cc(Br)c3c(c12)CN(C)CO3 [1.2(47)] | 100 | – |
| CCOC(=O)c1c(CSc2nc3ccccc3[nH]2)n(-c2ccccc2)c2cc(Br)c3c(c12)CN(C)CO3 [1.2(32)] | 65 | – |
| CCOC(=O)c1c(CSc2ccccc2)n(C)c2cc(-c3cccnc3)c3c(c12)CN(C)CO3 [1.2.2(8)] | 100 | – |
| CCOC(=O)c1c(CSc2cc(C)ccc2C#N)n(C)c2cc(Br)c3c(c12)CN(C)CO3 [1.2(36)] | < 50 | – |
| CCOC(=O)c1c(CSc2ccccc2)n(C)c2cc(-c3ccc4[nH]ncc4c3)c(O)c(CN(C)C)c12 [1.1.1(6)] | 58 | – |
| CCOC(=O)c1c(CSc2nc3ccccc3s2)n(-c2ccccc2)c2cc(Br)c3c(c12)CN(C)CO3 [1.2(34)] | < 50 | – |
| CCOC(=O)c1c(CNc2ccccc2)n(C)c2cc(C#N)c3c(c12)CN(C)CO3 [1.2(30)] | < 50 | – |
| CCOC(=O)c1c(CN(C)C)n(-c2ccccc2)c2ccc3c(c12)CN(C)CO3 [1.2(11)] | 77 | – |
| CCOC(=O)c1c(CN2CCN(CCO)CC2)n(C)c2cc(Br)c3c(c12)CN(C)CO3 [1.2(14)] | 95 | – |
| CCOC(=O)c1c(CNc2ccccc2)n(C)c2cc(-c3ccncc3)c3c(c12)CN(C)CO3 [1.2.3(8)] | 100 | – |
| CCOC(=O)c1c(CSc2ccccc2)n(C)c2cc(Br)c3c(c12)CN(CC)CO3 [1.2(31)] | 100 | – |

| Compound | inhibition (virus influenza A) [%] | other results |
| --- | --- | --- |
| CCOC(=O)c1c(Cn2ccnc2C)n(C)c2cc(Br)c3c(c12)CN(C)CO3 [1.2(19)] | 88 | – |
| CCOC(=O)c1c(CSc2ccccc2)n(C)c2cc(-c3cccnc3)c(O)c(CN3CCCC(CO)C3)c12 (centres unmarked) [1.2.1(23)] | 95 | – |
| CCOC(=O)c1c(CN(C)C)n(C)c2cc(-c3cccnc3)c3c(c12)CN(C)CO3 [1.2.5(1c), hydrochloride] | – | CC50 (in vitro): 78 µM; Therapeutic index SI50 = TC50/IC50 [1]: 13; IC50 ([1]; GETYPE2A): 6 µM |
| CN1COc2c(Br)cc3c(c2C1)c(C(=O)OC1CCCCC1)c(CNc1ccccc1)n3C [1.2(48)] | 76 | – |
| CCCCC1Oc2c(Br)cc3c(c2CN1C)c(C(=O)OCC)c(CSc1ccccc1)n3C (centres unmarked) [1.2(37)] | 77 | – |
| CCOC(=O)c1c(CNc2ccncc2)n(C)c2cc(Br)c3c(c12)CN(C)CO3 [1.2(18)] | 100 | – |
| CCOC(=O)c1c(CSc2ccccc2)n(C)c2cc(Br)c(O)c(CN(C)C)c12.Cl [Arbidol, ethyl 6-bromo-4-[(dimethylamino)methyl]-5-hydroxy-1-methyl-2-(phenylthiomethyl)-1H-indole-3-carboxylate hydrochloride] | – | TC50 [2]: 15 to 25 µg/mL; IC50 (influenza virus): 23.2 MκΓ/ml |
| CCOC(=O)c1c(CSc2ccccc2)n(C)c2cc(-c3cc4cc(OC)ccc4[nH]3)c(O)c(CN(C)C)c12 [1.1.1(5)] | 60 | – |
| CCOC(=O)c1c(CS(=O)(=O)c2ccc(Cl)cc2)n(C)c2cc(Br)c3c(c12)CN(C)CO3 [1.2(43)] | 77 | – |
| CCOC(=O)c1c(CSc2ccccc2)n(C)c2cc(Br)c3c(c12)CN(C)CO3 [1.2(38)] | 100 | – |
| CCOC(=O)c1c(CSc2ccccc2)n(C)c2cc(-c3cncnc3)c(O)c(CN(C)C)c12 [1.1.1(7), ethyl 4-((dimethylamino)methyl)-5-hydroxy-1-methyl-2-(phenylthiomethyl)-6-(pyrimidin-5-yl)-1H-indole-3-carboxylate] | 62 | – |
| CCOC(=O)c1c(CSc2ccccc2)n(C)c2cc(-c3ccncc3)c(O)c(CN(C)C)c12 [1.2.1(6)] | 100 | – |
| CCOC(=O)c1c(CN2CCC(C)CC2)n(Cc2ccccc2)c2cc(Br)c3c(c12)CN(C)CO3 [1.2(12)] | 85 | – |
| CCOC(=O)c1c(CSc2ccccc2)n(C)c2cc(C#N)c(O)c(CN3CCCC(CO)C3)c12 (centres unmarked) [1.1(11)] | < 50 | – |
| CCOC(=O)c1c(CN2CCN(c3ccccc3)CC2)n(C2CCCCC2)c2cc(Br)c3c(c12)CN(C)CO3 [1.2(9)] | 62 | – |
| CCOC(=O)c1c(CN2CCCCC2C)n(Cc2ccccc2)c2cc(Br)c3c(c12)CN(C)CO3 (centres unmarked) [1.2(13)] | 77 | – |
| CCOC(=O)c1c(CSc2ccccc2)n(C)c2cc(C#N)c(O)c(CN(C)C)c12 [1.1(15)] | – | CC50 (in vitro): > 100 µM; Therapeutic index SI50 = TC50/IC50 [1]: >4; IC50 [1]: 28 µM |
| CCOC(=O)c1c(CNc2ccccc2)n(C)c2cc(Br)c3c(c12)CN(C)CO3 [1.2(44)] | 100 | – |
| CCOC(=O)c1c(CNc2ccc(Cl)cc2)n(C)c2cc(Br)c3c(c12)CN(C)CO3 [1.2(45)] | 100 | – |
| CCOC(=O)c1c(CN2CCN(C)CC2)n(-c2ccccc2)c2ccc3c(c12)CN(C)CO3 [1.2(1)] | < 50 | – |
